Patent publication US10017480B2, “Compounds having a selective PDE4D inhibiting activity” (UNIVERSITÂ DEGLI STUDI DI GENOVA, priority 2014, dated 2018)

Assays:
PDE4D1 = PDE4D1 (Homo sapiens, UniProt Q08499); assay: PDE4D1 enzyme inhibition (IMAP); type: biochemical
PDE4D2 = PDE4D2 (Homo sapiens, UniProt Q08499); assay: PDE4D2 enzyme inhibition (IMAP); type: biochemical
PDE4D3 = PDE4D3 (Homo sapiens, UniProt Q08499); assay: PDE4D3 enzyme inhibition (IMAP); type: biochemical
Method: (§1) Compound's evaluation on PDE4D3, PDE4A4, PDE4B2 and PDE4C2 enzyme assays were performed by Scottish Biomedical (Glasgow, Scotland, UK) using recombinant human PDE enzymes expressed in a baculoviral system. The preliminary screening assays were performed by the IMAP technology (Molecular Devices), which is based on the high affinity binding of phosphate by immobilized metal coordination complexes on nanoparticles. The binding reagent complexes with phosphate groups on nucleotide monophosphate generated from cyclic nucleotides (cAMP) through phosphodiesterases. With fluorescence polarization detection, binding causes a change in the rate of the molecular motion of the phosphate bearing molecule and results in an increase in the fluorescence polarization value observed for the fluorescent label attached to the substrate. […] All compounds were solved in DMSO at 10^−2 M concentration and then diluted with water to the final suitable concentrations. All synthesized compounds were tested preliminary on PDE4D3 at 10^−5 M concentration, in duplicate. Results are expressed as a percent inhibition of control activity (see table 1).
IC50 values are reported at μM concentration in table 1. […] The results are reported (as percent of inhibition at 10 μM concentration) in Table 1.

PDE4A4 = PDE4A4 (Homo sapiens, UniProt P27815); assay: PDE4A4 enzyme inhibition (IMAP); type: biochemical; details: 10 μM
PDE4A4, sequence (P27815 whole entry): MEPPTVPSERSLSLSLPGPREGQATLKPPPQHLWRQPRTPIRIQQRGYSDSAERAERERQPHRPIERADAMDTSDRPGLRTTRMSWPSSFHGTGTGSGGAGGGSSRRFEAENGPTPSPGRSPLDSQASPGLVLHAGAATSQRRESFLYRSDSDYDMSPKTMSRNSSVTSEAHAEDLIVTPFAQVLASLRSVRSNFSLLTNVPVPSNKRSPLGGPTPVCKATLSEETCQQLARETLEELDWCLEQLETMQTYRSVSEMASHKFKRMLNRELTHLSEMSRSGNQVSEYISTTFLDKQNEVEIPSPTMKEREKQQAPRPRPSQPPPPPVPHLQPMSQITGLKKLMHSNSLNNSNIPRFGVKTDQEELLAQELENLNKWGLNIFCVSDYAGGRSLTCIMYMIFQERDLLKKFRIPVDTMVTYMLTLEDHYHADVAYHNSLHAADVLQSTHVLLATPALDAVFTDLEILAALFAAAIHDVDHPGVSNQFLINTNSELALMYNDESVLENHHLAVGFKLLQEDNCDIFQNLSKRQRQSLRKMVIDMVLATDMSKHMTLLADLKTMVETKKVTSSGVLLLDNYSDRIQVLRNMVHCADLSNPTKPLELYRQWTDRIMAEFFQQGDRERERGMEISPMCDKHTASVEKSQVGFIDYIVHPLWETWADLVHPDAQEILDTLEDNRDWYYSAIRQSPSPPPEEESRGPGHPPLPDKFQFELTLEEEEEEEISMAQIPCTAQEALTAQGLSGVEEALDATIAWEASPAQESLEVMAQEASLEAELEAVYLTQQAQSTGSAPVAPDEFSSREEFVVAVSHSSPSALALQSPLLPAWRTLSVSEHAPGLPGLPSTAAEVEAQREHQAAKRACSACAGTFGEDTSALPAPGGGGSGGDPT
Method: as §1
(§2) The IC50 values obtained for the reference compounds are within accepted limits of historic averages obtained (0.5 log unit). IC50 values are reported at μM concentration in table 1. […] The results are reported (as percent of inhibition at 10 μM concentration) in Table 1.

PDE4B2 = target: T1, PDE4B2 (Homo sapiens, UniProt Q07343); assay: PDE4B2 enzyme inhibition (IMAP); type: biochemical; details: 10 μM
T1 construct: purchased Scottish Biomedical (Glasgow, Scotland, UK); host or cells: baculoviral system
T1 sequence (Q07343 1-564 isoform Q07343-2): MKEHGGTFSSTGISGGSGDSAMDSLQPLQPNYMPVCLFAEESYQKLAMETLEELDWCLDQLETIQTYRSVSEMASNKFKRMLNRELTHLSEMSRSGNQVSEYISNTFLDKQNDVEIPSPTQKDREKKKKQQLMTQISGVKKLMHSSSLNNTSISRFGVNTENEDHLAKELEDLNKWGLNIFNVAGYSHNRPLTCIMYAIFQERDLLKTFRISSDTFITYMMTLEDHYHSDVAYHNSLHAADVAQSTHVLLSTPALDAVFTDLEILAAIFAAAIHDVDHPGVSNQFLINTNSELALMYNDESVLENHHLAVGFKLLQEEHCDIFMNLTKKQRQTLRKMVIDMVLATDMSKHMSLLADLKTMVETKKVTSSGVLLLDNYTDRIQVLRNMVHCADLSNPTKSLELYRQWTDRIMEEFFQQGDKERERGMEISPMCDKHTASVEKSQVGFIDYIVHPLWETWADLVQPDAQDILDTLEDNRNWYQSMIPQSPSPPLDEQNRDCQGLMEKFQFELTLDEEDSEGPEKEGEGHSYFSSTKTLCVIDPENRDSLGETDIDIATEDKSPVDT
Method: as §1, §2

PDE4C2 = target: T2, PDE4C2 (Homo sapiens, UniProt Q08493); assay: PDE4C2 enzyme inhibition (IMAP); type: biochemical
T2 construct: purchased Scottish Biomedical (Glasgow, Scotland, UK); host or cells: baculoviral system
T2 sequence (Q08493 107-712): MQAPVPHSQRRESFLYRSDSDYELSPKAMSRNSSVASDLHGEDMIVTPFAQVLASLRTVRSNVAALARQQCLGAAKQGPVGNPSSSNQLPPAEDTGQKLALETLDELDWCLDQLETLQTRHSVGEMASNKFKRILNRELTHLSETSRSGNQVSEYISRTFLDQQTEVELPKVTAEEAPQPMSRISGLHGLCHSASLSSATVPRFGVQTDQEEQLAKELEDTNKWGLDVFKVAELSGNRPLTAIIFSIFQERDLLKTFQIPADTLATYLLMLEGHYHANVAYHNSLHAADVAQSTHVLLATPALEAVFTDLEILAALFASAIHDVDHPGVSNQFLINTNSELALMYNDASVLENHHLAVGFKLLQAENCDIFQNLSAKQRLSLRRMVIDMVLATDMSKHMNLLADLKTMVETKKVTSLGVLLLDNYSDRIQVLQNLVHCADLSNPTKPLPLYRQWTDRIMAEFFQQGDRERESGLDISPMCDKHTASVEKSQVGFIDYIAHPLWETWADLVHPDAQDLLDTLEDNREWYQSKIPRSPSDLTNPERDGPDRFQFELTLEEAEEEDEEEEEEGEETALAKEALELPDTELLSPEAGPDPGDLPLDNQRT
Method: as §1, §2

[1] = Cytotoxicity, lactate-dehydrogenase release; type: cell-based; details: human, HTLA human neuronal cells
Method: To evaluate the preliminary toxic profile of the molecule XVIIIa, we performed cytotoxicity and genotoxicity assays on human neuronal cells (HTLA). For the cytotoxic potential, we analyzed the lactate-dehydrogenase release in cells exposed for 24 hours to high concentrations (100 μM) of XVIIIa or GEBR-7b (lead compound—Bruno et al, Br. J. Pharm., 2011, 164:2054).

HTLA cells = assay: Genotoxicity, Western blot of γ-H2AX; type: cell-based, human; details: 100 μM
Source text: To evaluate the genotoxic potential of XVIIIa and GEBR-7b, we analyzed the phosphorylation of the chromatin-bound histone H2AX (γ-H2AX), which is a quantitative marker for the DNA damage response at the site of double-strand breaks.
The H2AX signal represents the internal loading control.

[2] = tested on: extracellular cAMP in the hippocampus of freely moving rats; assay: In vivo cAMP-enhancing potential, intracerebral microdialysis
Method: The in vivo effects of XVIIIa on extracellular cAMP levels in the hippocampus of freely moving rats were analyzed by means of intracerebral microdialysis.
However, when the PDE4D inhibitor was infused at the concentration of 100 μM, a marked cAMP response could be observed (40-80% over basal values) as reported in FIG. 3. The effects of XVIIIa were similar to those previously reported for the PDE4D inhibitor GEBR-7b (lead compound; data taken from Bruno et al., Br. J. Pharmacol. 2011, 164, 2054-2063).
XVIIIa or GEBR-7b were administered through the probe after 3 consecutive control samples had been collected and were present in the infusion fluid for the time indicated by the horizontal empty bar. Data are expressed as percentages of the mean basal value (defined 100%) that was determined by averaging the cAMP content in the three fractions collected before drug treatment. Each point represents the mean±SEM for 3-6 different experiments.

[3] = tested on: hippocampal slices from Tg2576 mice and WT littermates; assay: Electrophysiological study, LTP in hippocampal slices; details: 2 μM, bath, 20 minutes before theta burst stimulation
Method: Compound XVIIIa was tested to determine whether PDE4D inhibition can revert the damage of synaptic function following Aβ elevation in Tg2576 mice.
All experiments were performed with approval of the Columbia University IACUC Committe. The animals were 12 month old single transgenic mice expressing the human APP mutation (K670N,M671L) (a.k.a. Tg2576), as well as their WT littermates.
Slice recordings were performed as described previously (Trinchese et al, Ann Neurol 2004). Briefly, 400-μm slices were cut with a tissue chopper and maintained in an interface chamber at 29° C. for 90 minutes prior to recording. CA1 fEPSPs were recorded by placing both the stimulating and the recording electrodes in CA1 stratum radiatum. Basal synaptic transmission was assayed either by plotting the stimulus voltages against slopes of fEPSP. For LTP experiments, a 10-minute baseline was recorded every minute at an intensity that evokes a response approximately 35% of the maximum evoked response. Baseline was followed by a 20 minute perfusion with the compound prior to eliciting LTP using θ-burst stimulation (4 pulses at 100 Hz, with the bursts repeated at 5 Hz, and each tetanus including 3 ten-burst trains separated by 15 seconds). […]

[4] = tested on: forskolin (FSK)-induced cAMP in neuronal cultured cells; assay: In vitro cAMP-enhancing potential (EIA); details: 100 μM
[5] = Pharmacokinetic analysis, plasma and brain
[6] = male, BALB/c, mouse, brain, sc, 10 mg/kg
[7] = male, BALB/c, mouse, plasma, sc, 10 mg/kg

PDE4D3, sequence (Q08499 1-673 isoform Q08499-2): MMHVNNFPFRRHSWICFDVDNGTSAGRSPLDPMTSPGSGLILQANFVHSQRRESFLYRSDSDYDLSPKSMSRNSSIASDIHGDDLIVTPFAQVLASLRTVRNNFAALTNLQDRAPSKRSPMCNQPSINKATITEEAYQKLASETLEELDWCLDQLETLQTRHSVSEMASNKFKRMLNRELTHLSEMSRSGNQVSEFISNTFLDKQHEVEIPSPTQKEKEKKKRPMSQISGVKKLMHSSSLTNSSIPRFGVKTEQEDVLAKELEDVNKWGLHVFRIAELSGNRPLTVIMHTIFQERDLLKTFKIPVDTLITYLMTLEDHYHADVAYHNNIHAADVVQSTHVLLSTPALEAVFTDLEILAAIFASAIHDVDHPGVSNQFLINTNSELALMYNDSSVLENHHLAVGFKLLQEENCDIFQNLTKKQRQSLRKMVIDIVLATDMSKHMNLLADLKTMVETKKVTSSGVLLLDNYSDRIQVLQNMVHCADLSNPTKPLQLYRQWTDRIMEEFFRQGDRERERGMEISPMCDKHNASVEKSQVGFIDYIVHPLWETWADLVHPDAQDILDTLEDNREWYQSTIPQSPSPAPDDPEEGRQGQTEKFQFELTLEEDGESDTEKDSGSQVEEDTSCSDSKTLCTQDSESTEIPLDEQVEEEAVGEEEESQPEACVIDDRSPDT
PDE4D2, sequence (Q08499 303-809 limits assumed): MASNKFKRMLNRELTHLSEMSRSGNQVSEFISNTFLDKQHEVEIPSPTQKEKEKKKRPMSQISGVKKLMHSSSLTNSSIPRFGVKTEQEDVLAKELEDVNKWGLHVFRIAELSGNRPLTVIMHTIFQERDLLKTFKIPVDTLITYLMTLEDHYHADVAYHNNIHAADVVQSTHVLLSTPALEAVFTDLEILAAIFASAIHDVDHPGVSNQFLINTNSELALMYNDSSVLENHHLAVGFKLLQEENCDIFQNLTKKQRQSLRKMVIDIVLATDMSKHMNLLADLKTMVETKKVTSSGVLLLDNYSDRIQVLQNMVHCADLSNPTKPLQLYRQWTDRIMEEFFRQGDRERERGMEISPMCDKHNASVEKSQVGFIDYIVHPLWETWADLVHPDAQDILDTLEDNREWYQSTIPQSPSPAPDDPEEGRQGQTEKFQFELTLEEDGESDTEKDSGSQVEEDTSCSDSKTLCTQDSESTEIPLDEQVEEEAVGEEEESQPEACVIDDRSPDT
PDE4D1, sequence (Q08499 1-584 isoform Q08499-4): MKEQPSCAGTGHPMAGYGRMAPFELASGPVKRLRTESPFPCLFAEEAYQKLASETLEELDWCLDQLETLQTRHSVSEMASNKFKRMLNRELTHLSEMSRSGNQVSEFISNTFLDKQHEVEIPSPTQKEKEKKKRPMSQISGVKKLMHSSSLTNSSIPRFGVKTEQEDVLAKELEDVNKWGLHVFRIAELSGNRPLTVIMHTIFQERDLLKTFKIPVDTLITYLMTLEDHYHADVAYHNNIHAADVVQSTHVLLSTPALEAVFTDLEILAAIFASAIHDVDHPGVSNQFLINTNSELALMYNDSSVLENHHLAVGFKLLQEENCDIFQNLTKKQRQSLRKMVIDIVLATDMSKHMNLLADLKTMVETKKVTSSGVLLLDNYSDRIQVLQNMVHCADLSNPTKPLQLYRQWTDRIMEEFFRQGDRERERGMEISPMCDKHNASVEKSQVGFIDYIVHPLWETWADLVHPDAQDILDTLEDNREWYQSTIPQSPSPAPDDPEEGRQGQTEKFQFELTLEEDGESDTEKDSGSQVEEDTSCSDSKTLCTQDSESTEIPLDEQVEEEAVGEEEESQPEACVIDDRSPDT

Structure (SMILES): COc1ccc(-c2ccn(CC(O)CN3CCOCC3)n2)cc1OC1CCCC1 (stereo not drawn) [XVIIIa, 1-{3-[3-(Cyclopentyloxy)-4-methoxyphenyl]-1H-pyrazol-1-yl}-3-morpholin-4-ylpropan-2-ol dihydrocloride]
- PDE4D1 % inib at 10 μM (PDE4D1): 34%
- PDE4D2 % inib at 10 μM (PDE4D2): 28%
- PDE4D3 % inib at 10 μM (PDE4D3; 10 μM, in duplicate): 68%
- IC50 (PDE4D3; five concentrations 10^−8-10^−4 M): 7.6 µM
- PDE4A4 % inib at 10 μM (PDE4A4): 22%
- PDE4B2 % inib at 10 μM (PDE4B2): 18%
- PDE4C2 % inib at 10 μM (PDE4C2): 11%
- cytotoxicity at 24 h, 100 µM [1]: 3.3 ± 0.4%
- DNA damage (γ-H2AX) (HTLA cells): not observed
- hippocampal extracellular cAMP ([2]; 30 μM by reverse dialysis): slight, though not significant, increase
- hippocampal extracellular cAMP response ([2]; 100 μM infused): 40-80 % over basal values
- LTP in WT littermates [3]: without affecting LTP
- LTP in hippocampal slices from 12 month-old Tg mice [3]: rescued the defect in LTP
- accumulation of forskolin (FSK)-induced cAMP, fold induction ([4]; 10 min pre-treatment, then 1 μM FSK 20 min): 3 fold
- basal cAMP levels ([4]; without FSK): without affecting the basal cAMP levels
- AUC0-t ([5]; brain, male BALB/c mice, 10 mg/kg subcutaneously): 812 ng·h/g
- Cmax [5, 6]: 936 ng/g
- Tmax [5, 6]: 10.2 min
- half-life [5, 6]: 32.4 min
- Kp ([5]; male, BALB/c, mouse, in vivo, sc, 10 mg/kg): 0.75
- AUC0-t [5, 7]: 1890 ng·h/mL
- Cmax [5, 7]: 2160 ng/mL
- Tmax [5, 7]: 10.2 min
- half-life [5, 7]: 49.2 min
